Values after ≈ are worked out from the molar mass of the structure shown. Where two headings read alike, the source gives them in different places.
Key:
[1] = molecular target: T1, human D2L receptors (Homo sapiens (Human), UniProt P14416); test: Agonism of human D2L receptors, cAMP detection (HTRF) in CHO-K1 cells; format: cell-based; settings: inhibition of forskolin-stimulated cAMP accumulation, read-out: D2L cAMP pEC50 (converted)
Target sequence in this assay (P14416 whole entry): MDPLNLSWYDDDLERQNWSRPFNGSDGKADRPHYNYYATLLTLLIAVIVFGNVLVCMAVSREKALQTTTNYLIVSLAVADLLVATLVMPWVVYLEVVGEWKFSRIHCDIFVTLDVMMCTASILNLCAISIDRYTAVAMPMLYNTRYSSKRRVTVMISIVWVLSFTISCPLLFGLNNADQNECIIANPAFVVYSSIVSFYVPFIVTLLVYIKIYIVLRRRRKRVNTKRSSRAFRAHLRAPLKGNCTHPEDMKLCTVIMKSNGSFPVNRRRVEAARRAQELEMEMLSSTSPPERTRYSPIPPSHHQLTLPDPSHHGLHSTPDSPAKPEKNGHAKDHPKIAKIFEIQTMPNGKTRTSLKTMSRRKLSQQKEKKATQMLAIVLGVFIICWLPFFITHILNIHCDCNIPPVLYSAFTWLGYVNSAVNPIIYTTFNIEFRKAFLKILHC
Protocol: Agonist activity at human D2L receptors was assayed by measuring cAMP levels in CHO-K1 cells expressing human D2L receptors (Eurofins DiscoverX, Fremont, CA, USA) by homogenous time-resolved fluorescence (HTRF®) using the cAMP Gi kit (Cisbio/PerkinElmer). CHO-K1 cells expressing human D2L receptors were cultured in Ham's F12 medium supplemented with 10% FBS, 1% penicillin-streptomycin antimycotic solution, and 800 μg/mL G418 (Thermo Fisher Scientific, Waltham, MA, USA) and maintained at 37° C. in a humidified atmosphere containing 5.0% CO2. […] Results were calculated from the ratio of acceptor fluorescence signal (A665 nm) and donor fluorescence signal (A620 nm)×10^4 and expressed as ΔF % values using the following formula: 100×(Ratio Sample-Ratio Negative Control)/Ratio Negative Control. In experiments, all treatments were measured in multiple wells in parallel, and the mean ΔF % values were used for further analysis. Agonist activity values were calculated as percentage of inhibition of forskolin-stimulated cAMP accumulation normalized to the response evoked by a maximally effective concentration of dopamine tested in the same experiment. […]

[2] = Thermodynamic solubility study (37° C., 4 hours); format: physicochemical; settings: fassgf or other biorelevant, thermodynamic from solid, SIF pH = 6.8, 4 hours, read-out: Thermodynamic sol.
Protocol: Thermodynamic Solubility Study (37° C., 4 Hours)
The resulted mixtures/oversaturated solutions are shaken at 37° C. for 4 hrs (to the solution equilibrium) and are filtrated on a Millipore MultiSreen Filter Plate (0.45 μm). Concentrations of the filtrates are determined by LC/UV/MS based on a 5-point calibration. (When the solid material dissolved totally in the aqueous test medium the result should be considered as a minimal value.) Results are shown in Table 2.

[3] = molecular target: T2, human D3 receptors (Homo sapiens (Human), UniProt P35462); test: β-arrestin recruitment to human dopamine D3 receptors (PathHunter CHO-K1); format: cell-based
Target sequence in this assay (P35462 whole entry, looked up): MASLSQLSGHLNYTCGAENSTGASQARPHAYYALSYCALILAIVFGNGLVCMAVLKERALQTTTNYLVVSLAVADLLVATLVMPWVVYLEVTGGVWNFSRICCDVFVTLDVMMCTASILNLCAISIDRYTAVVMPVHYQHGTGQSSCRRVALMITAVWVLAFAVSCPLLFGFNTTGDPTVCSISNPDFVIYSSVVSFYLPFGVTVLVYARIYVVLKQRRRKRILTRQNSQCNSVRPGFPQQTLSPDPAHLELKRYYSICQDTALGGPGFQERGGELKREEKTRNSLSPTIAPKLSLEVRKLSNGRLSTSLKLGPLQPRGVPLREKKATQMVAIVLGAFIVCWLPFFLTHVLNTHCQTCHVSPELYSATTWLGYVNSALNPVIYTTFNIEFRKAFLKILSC
Target sequence in this assay (P32121 whole entry partner, looked up): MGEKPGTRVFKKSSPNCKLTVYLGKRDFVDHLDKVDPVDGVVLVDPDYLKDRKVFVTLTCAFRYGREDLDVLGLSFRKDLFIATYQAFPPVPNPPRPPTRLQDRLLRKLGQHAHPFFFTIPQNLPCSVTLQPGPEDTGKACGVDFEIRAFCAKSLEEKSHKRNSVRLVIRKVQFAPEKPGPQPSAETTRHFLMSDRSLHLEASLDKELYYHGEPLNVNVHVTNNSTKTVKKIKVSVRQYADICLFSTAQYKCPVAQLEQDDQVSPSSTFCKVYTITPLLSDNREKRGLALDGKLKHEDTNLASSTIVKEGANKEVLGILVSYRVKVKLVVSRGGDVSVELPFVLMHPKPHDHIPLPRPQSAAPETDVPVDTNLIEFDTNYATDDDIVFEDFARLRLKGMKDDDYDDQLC
Protocol: Measurement of β-Arrestin Recruitment to Human Dopamine D3 Receptors
PathHunter® CHO-K1 cells expressing tagged human D3 receptors and tagged β-arrestin-2 (Eurofins DiscoverX, Fremont, CA, USA) were seeded into 96-well white-walled clear bottom tissue culture plates in 90 μL AssayComplete™ Cell Plating 2 (CP2) reagent (Eurofins DiscoverX) at a density of 25,000 cells/well and incubated overnight in humidified atmosphere with 5% CO2 at 37° C. Twenty to twenty-four hours later, 20 μL of test compounds or vehicle in CP2 reagent containing 2.2% DMSO was added to the cells and the cells were incubated for 90 minutes at 37° C. Following incubation, 55 μL PathHunter® Detection Reagent (Eurofins DiscoverX) was added per well and the plates were incubated for 60 minutes at 25° C. followed by luminescence detection using a PHERAstar® FS multimode plate reader (BMG Labtech, Ortenberg, Germany).
Raw data were first converted to stimulation % above basal values. The stimulation % above basal values were further converted to % of maximal stimulation of β-arrestin recruitment by 1 μM dopamine. EC50 values were calculated from concentration-response curves of at least six concentrations in duplicates by sigmoidal fitting using Origin® 7.5 software (OriginLab© Corporation, Northampton, MA, USA) and were defined as the concentration of the agonist with half-maximal stimulation.

[4] = molecular target: human 5-HT2A receptors (Homo sapiens (Human), UniProt P28223); test: Antagonism at human 5-HT2A receptors, fluorometric Ca2+ detection; format: cell-based; settings: CHO-K1 cells with Gα16, against EC80 5-HT; read-out: 5-HT2A Ca2+ pIC50 (converted)
human 5-HT2A receptors, sequence (P28223 whole entry): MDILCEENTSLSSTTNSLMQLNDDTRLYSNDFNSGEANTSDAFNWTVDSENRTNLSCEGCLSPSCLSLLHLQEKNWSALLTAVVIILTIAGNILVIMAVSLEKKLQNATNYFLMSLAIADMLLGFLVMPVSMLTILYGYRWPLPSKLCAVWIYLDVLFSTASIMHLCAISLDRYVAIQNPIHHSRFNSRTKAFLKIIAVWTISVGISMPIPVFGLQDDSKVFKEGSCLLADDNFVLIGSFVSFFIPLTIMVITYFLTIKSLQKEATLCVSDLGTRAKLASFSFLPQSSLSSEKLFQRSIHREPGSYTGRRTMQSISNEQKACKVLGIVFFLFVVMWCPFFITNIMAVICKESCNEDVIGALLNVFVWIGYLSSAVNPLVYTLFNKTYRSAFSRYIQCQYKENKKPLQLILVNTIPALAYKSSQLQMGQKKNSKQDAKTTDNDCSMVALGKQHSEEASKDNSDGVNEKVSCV
Description: Characterization of Antagonism at Human 5-HT2A Receptors using Fluorometric Ca^2+ Detection
CHO-K1 cells expressing human recombinant 5-HT2A receptors and Gα16 (purchased from Euroscreen Fast, Brussels, BE) in culture were cryopreserved according to established protocols, using 90% FBS/10% DMSO as medium. Prior to the experiment, cells were thawed, resuspended in PowerCHO™ 2 medium (Lonza, Basel, Switzerland) supplemented with 10% fetal bovine serum (FBS), 1% penicillin-streptomycin antimycotic solution, and 1% pyruvate. Cells were seeded in 96-well microplates at a density of 40,000 cells/well and incubated overnight at 37° C. in a humidified atmosphere containing 5.0% CO2. […]
Baseline and agonist-evoked [Ca^2+]i (intracellular Ca^2+) changes were monitored with a FlexStation® II 96 well plate reader (Molecular Devices, San Jose, CA, USA). […] Baseline was recorded for 20 seconds followed by agonist stimulation, when 50 μL 3× concentrated agonist (5-HT at its EC80) solution or assay buffer/vehicle was added to all wells at 75 μL/second using the onboard pipettor, at a height corresponding to 155 μL. Fluorescence was monitored for an additional 20 seconds.
Compounds were evaluated against an EC80 5-HT concentration, as determined on each plate with the built-in curve fitting module of the measurement software (SoftMax® Pro 5.2, Molecular Devices, San Jose, CA, USA). […]

[5] = molecular target: T1, human D2L receptors; test: β-arrestin recruitment to human dopamine D2L receptors (PathHunter CHO-K1); format: cell-based; settings: β-arrestin-2 recruitment, CHO-K1 cells, normalized to 30 μM dopamine; read-out: D2L arrestin pEC50 (converted)
Target sequence in this assay (P14416 whole entry, looked up): as the sequence (P14416 whole entry) above
Target sequence in this assay (P32121 whole entry partner, looked up): as the sequence (P32121 whole entry partner, looked up) above
Protocol: Measurement of β-Arrestin Recruitment to Human Dopamine D2L Receptors
PathHunter® CHO-K1 cells expressing tagged human D2L receptors and tagged β-arrestin-2 (Eurofins DiscoverX, Fremont, CA, USA) were seeded into 96-well white-walled clear bottom tissue culture plates in 90 μL/cell AssayComplete™ Cell Plating 2 (CP2) reagent (Eurofins DiscoverX) at a density of 20,000 cells/well. The plates were incubated overnight in a humidified atmosphere with 5% CO2 at 37° C. Twenty to twenty-four hours later, 20 μL of test compound or vehicle in CP2 reagent and containing 2.2% DMSO was added to the cells, and they were incubated for 90 minutes at 37° C. Then, 55 μL PathHunter® Detection Reagent (Eurofins DiscoverX) was added per well and plates were incubated for 60 minutes at 25° C., followed by luminescence detection using a PHERAstar® FS multimode plate reader (BMG Labtech, Ortenberg, Germany). Raw data were converted to percent stimulation above basal values. Values were further converted to percent of maximal stimulation of β-arrestin recruitment by 30 μM dopamine. EC50 values were calculated from concentration-response curves of at least six concentrations run in duplicates by sigmoidal fitting using Origin® 7.5 software (OriginLab Corporation, Northampton, MA, USA) and were defined as the concentration of the agonist with half-maximal stimulation.

[6] = molecular target: T2, human D3 receptors; test: Agonism at human D3 receptors, cAMP detection (HTRF) in HEK293 cells; format: cell-based; settings: inhibition of forskolin-stimulated cAMP accumulation, HEK293 cells co-expressing adenylyl cyclase V; read-out: D3 cAMP pEC50 (converted)
Target sequence in this assay (P35462 whole entry): as the sequence (P35462 whole entry, looked up) above
Protocol: Characterization of Agonism at Human D3 Receptors Using Cyclic Adenosine Monophosphate Detection
Agonist activity at human D3 receptors was assayed by cAMP levels in HEK293 cells expressing recombinant human D3 receptors (BioXtal, Saint-Félix, France) stably co-expressing adenylyl cyclase V (ACV) (cell line developed by Gedeon Richter) by homogenous time-resolved fluorescence (HTRF) using the cAMP Gi kit (Cisbio/PerkinElmer). HEK293 cells expressing recombinant human D3 receptors and ACV were cultured in DMEM supplemented with 10% FBS, 1% penicillin-streptomycin antimycotic solution, 1% pyruvate, 100 μg/mL G418 (Thermo Fisher Scientific) and 60 μg/mL hygromycin B and maintained at 37° C. in a humidified atmosphere containing 5% CO2. […]
Results were calculated from the ratio of acceptor fluorescence signal (A665 nm) and donor fluorescence signal (A620 nm)×10^4 and expressed as ΔF % values using the following formula: 100× (ratio sample-ratio negative control)/ratio negative control. In all experiments multiple wells were measured in parallel, and the mean ΔF % values were used for further analysis. Agonist activity values were calculated as percentage of inhibition of forskolin-stimulated cAMP accumulation normalized to the response evoked by a maximally effective concentration of dopamine tested in the same experiment. […]

[7] = Kinetic solubility study; format: physicochemical; settings: PBS pH 7.4 with 1% DMSO, aqueous buffer, kinetic from dmso stock; PBS pH = 7.4, 2 hours, RT, 1% DMSO co-solvent; read-out: Kinetic sol.
Protocol: Following shaking of the suspension on an orbital shaker at 300 rpm for 2 hours, the suspension was clarified by vacuum filtration (Multiscreen® Vacuum Manifold; MilliporeSigma). Immediately following the filtration step, […] of the filtrate was transferred into […] of acetonitrile to avoid compound precipitation from the saturated solution. The concentration of the research compound was determined by HPLC-UV-(MS) detection, by using an external standard made from the same batch of research compound.

[8] = system: apomorphine-induced climbing and sniffing; test: Apomorphine-induced climbing and sniffing in mice; format: in vivo; settings: Mus musculus, sc, male CD1 mice, subcutaneous, 1.5 mg/kg apomorphine
Protocol: Apomorphine-Induced Climbing and Sniffing in Mice
Male CD1® mice (Envigo, Horst, NL) weighing 24-29 g were used in the experiments (n=12 per treatment group). Climbing and sniffing behavior were measured by visual observation in cylindrical cages.
Immediately after the subcutaneous administration of the vehicle or the test compound, animals were placed into the cages for 10 minutes to habituate. […] After treatment, animals were replaced into the cylindrical cages. The measurement of climbing and sniffing behavior started 10 minutes after the apomorphine treatment (during the 11th minute) and lasted for 16 minutes. Every minute the climbing behavior was scored as follows: four paws on the floor (0 score); forefeet touching the bars (1 score); and four paws grasping the bars (2 score). Animals were also rated for repetitive sniffing as a measure of stereotypy according to the following scale: no sniffing (0 score), moderate sniffing, little snout contact with cage walls or floor (1 score); and constant sniffing, persistent snout contact (2 score).
Data were analyzed using GraphPad Prism 9 software (GraphPad). Scores for both behaviors were tallied for each individual (possible maximum score 32) and group means were calculated. Drug effect was calculated as percent inhibition of the apomorphine-induced behavior. […]

[9] = system: phencyclidine-induced hypermotility; test: Phencyclidine-induced hypermotility in rats; format: in vivo; settings: Rattus norvegicus; male Harlan-Wistar rats, percent inhibition, linear regression; read-out: PCP (ED50 mg/kg)
Protocol: Phencyclidine-Induced Hypermotility in Rats
Spontaneous locomotor activity was measured using a six-channel activity monitor manufactured by Experimetria Ltd. (Budapest, HU). […] Additional arrays of photocells (30 pairs) were placed along opposite sides of the cage at different heights (6.5 cm, 12 cm, 18 cm and 23 cm) in order to detect rearing responses.
Test compounds were administered to study animals either orally or subcutaneously, with ten animals per treatment group. In these studies, male Harlan-Wistar rats (Toxi-Coop, Budapest, HU) weighing 190-210 grams were used. After oral administration of test compound or vehicle, animals were individually habituated to the activity monitors for 30 minutes. In the cases of subcutaneous administration of test compounds, rats were first habituated for 15 minutes to the activity monitors, then treated with the test compound or vehicle followed by replacing them into the activity monitors for an additional 15-minute period of habituation. […]
Data were analyzed using GraphPad® Prism® 9 software (GraphPad, San Diego, CA, USA). […] Drug effect was evaluated using Analysis of Variance (ANOVA, or Welch's ANOVA when appropriate) followed by Dunnett's multiple comparisons test. When appropriate, the ED50 value was determined from percent inhibition data from linear regression analysis.

COCN(C)C(=O)N[C@H]1CC[C@H](CCN2CCN(c3cccc(Cl)c3Cl)CC2)CC1 [Example 2, N′-[(1r,4r)-4-{2-[4-(2,3-dichlorophenyl)piperazin-1-yl]ethyl}cyclohexyl]-N-(methoxymethyl)-N-methylurea]
EC50 [1]: 1.32 nM
solubility thermodynamic at 4 h [2]: 147 ± 8.72 µM (≈ 67.3 µg/mL)
EC50 [3]: 3.89 nM
IC50 [4]: 132 nM
EC50 [5]: 0.724 nM
EC50 [6]: 1.95 nM
solubility kinetic at 2 h [7]: 47.7 ± 4.5 µM (≈ 21.8 µg/mL)

CCCN(C)C(=O)N[C@H]1CC[C@H](CCN2CCN(c3cccc(Cl)c3Cl)CC2)CC1 [Ref. Ex. 1, N′-[(1r,4r)-4-{2-[4-(2,3-dichlorophenyl)piperazin-1-yl]ethyl}cyclohexyl]-N-methyl-N-propylurea, reference compound]
solubility thermodynamic at 4 h [2]: 27.7 ± 1.1 µM (≈ 12.6 µg/mL)
solubility kinetic at 2 h [7]: 10.9 ± 1.7 µM (≈ 4.96 µg/mL)

CCCOCN(C)C(=O)N[C@H]1CC[C@H](CCN2CCN(c3cccc(Cl)c3Cl)CC2)CC1 [Example 3, N′-[(1r,4r)-4-{2-[4-(2,3-dichlorophenyl)piperazin-1-yl]ethyl}cyclohexyl]-N-methyl-N-(propoxymethyl)urea]
solubility thermodynamic at 4 h [2]: 32.7 ± 1.65 µM (≈ 15.9 µg/mL)
solubility kinetic at 2 h [7]: 32.4 ± 3.2 µM (≈ 15.7 µg/mL)

CCOCN(C)C(=O)N[C@H]1CC[C@H](CCN2CCN(c3cccc(Cl)c3Cl)CC2)CC1 [Example 1, N′-[(1r,4r)-4-{2-[4-(2,3-dichlorophenyl)piperazin-1-yl]ethyl}cyclohexyl]-N-(ethoxymethyl)-N-methylurea]
ED50 ([8]; apomorphine-induced climbing, read-out: APO (ED50 cl mg/kg)): 0.1 mg/kg
ED50 ([8]; apomorphine-induced sniffing, read-out: APO (ED50 sn mg/kg)): 0.4 mg/kg
solubility thermodynamic at 4 h [2]: 53.5 ± 0.9 µM (≈ 25.2 µg/mL)
ED50 [9]: 0.07 mg/kg
IC50 [4]: 158 nM
solubility kinetic at 2 h [7]: 72.7 ± 3.4 µM (≈ 34.3 µg/mL)
